Measured values from ChEMBL document CHEMBL1140691, “New type of anti-diabetic compounds from the processed leaves of Hydrangea macrophylla var. thunbergii (Hydrangeae Dulcis Folium)” (2007).

Legend:
Assay type in all cases: functional
[1] = system: 3T3-L1; test: Increase in triglyceride levels in mouse 3T3L1 cells at 100 uM
[2] = system: 3T3-L1; test: Increase in triglyceride levels in mouse 3T3L1 cells at 30 uM
[3] = system: 3T3-L1; test: Increase in triglyceride levels in mouse 3T3L1 cells at 10 uM
[4] = system: 3T3-L1; test: Increase in triglyceride levels in mouse 3T3L1 cells at 1 uM
[5] = system: 3T3-L1; test: Increase in triglyceride levels in mouse 3T3L1 cells at 3 uM
[6] = system: 3T3-L1; test: Increase in PPARgamma2 gene expression in mouse 3T3L1 cells at 30 uM after 2 days relative to beta-actin mRNA expression
[7] = system: 3T3-L1; test: Increase in 2-Deoxyglucose-uptake in mouse 3T3L1 cells at 100 uM by liquid scintillation counter
[8] = system: 3T3-L1; test: Increase in 2-Deoxyglucose-uptake in mouse 3T3L1 cells at 30 uM by liquid scintillation counter
[9] = system: Mus musculus; test: Decrease in blood glucose levels in KKAy mouse at 100 mg/kg, po after 2 weeks
[10] = system: Mus musculus; test: Decrease in blood glucose levels in KKAy mouse at 100 mg/kg, po after 1 week
[11] = system: 3T3-L1; test: Increase in GLUT4 gene expression in mouse 3T3L1 cells at 100 uM after 2 days relative to beta-actin mRNA expression
[12] = system: 3T3-L1; test: Increase in adiponectin release in mouse 3T3L1 cells at 3 uM on day 6 by ELISA
[13] = system: 3T3-L1; test: Decrease in IL6 gene expression in mouse 3T3L1 cells at 100 uM after 2 days relative to beta-actin mRNA expression
[14] = system: 3T3-L1; test: Increase in adiponectin release in mouse 3T3L1 cells at 100 uM on day 4 by ELISA
[15] = system: Mus musculus; test: Decrease in blood free fatty acid levels in KKAy mouse at 100 mg/kg, po after 2 weeks
[16] = system: Mus musculus; test: Decrease in blood free fatty acid levels in KKAy mouse at 200 mg/kg, po after 2 weeks
[17] = system: 3T3-L1; test: Increase in adiponectin release in mouse 3T3L1 cells at 100 uM on day 6 by ELISA
[18] = system: 3T3-L1; test: Increase in 2-Deoxyglucose-uptake in mouse 3T3L1 cells at 1 uM by liquid scintillation counter
[19] = system: Mus musculus; test: Effect on blood triglyceride levels in KKAy mouse at 100 mg/kg, po
[20] = system: Mus musculus; test: Effect on blood triglyceride levels in KKAy mouse at 100 mg/kg, po after 2 weeks
[21] = system: 3T3-L1; test: Increase in adiponectin release in mouse 3T3L1 cells at 10 uM on day 4 by ELISA
[22] = system: 3T3-L1; test: Increase in 2-Deoxyglucose-uptake in mouse 3T3L1 cells at 10 uM by liquid scintillation counter
[23] = system: Mus musculus; test: Decrease in blood glucose levels in KKAy mouse at 200 mg/kg, po after 2 weeks
[24] = system: Mus musculus; test: Decrease in blood glucose levels in KKAy mouse at 200 mg/kg, po
[25] = system: Mus musculus; test: Decrease in blood glucose levels in KKAy mouse at 100 mg/kg, po
[26] = system: 3T3-L1; test: Increase in GLUT4 gene expression in mouse 3T3L1 cells at 30 uM after 2 days relative to beta-actin mRNA expression
[27] = system: 3T3-L1; test: Increase in adiponectin release in mouse 3T3L1 cells at 3 uM on day 4 by ELISA
[28] = system: 3T3-L1; test: Increase in adiponectin release in mouse 3T3L1 cells at 30 uM on day 4 by ELISA
[29] = system: Mus musculus; test: Decrease in blood free fatty acid levels in KKAy mouse at 200 mg/kg, po
[30] = system: Mus musculus; test: Effect on blood triglyceride levels in KKAy mouse at 200 mg/kg, po
[31] = system: Mus musculus; test: Effect on blood triglyceride levels in KKAy mouse at 100 mg/kg, po after 1 week
[32] = system: Mus musculus; test: Decrease in blood free fatty acid levels in KKAy mouse at 100 mg/kg, po after 1 week
[33] = system: Mus musculus; test: Decrease in blood glucose levels in KKAy mouse at 200 mg/kg, po after 1 week
[34] = system: 3T3-L1; test: Increase in PPARgamma2 gene expression in mouse 3T3L1 cells at 100 uM after 2 days relative to beta-actin mRNA expression
[35] = system: 3T3-L1; test: Increase in 2-Deoxyglucose-uptake in mouse 3T3L1 cells at 3 uM by liquid scintillation counter
[36] = system: 3T3-L1; test: Increase in adiponectin release in mouse 3T3L1 cells at 10 uM on day 6 by ELISA
[37] = system: Mus musculus; test: Effect on blood triglyceride levels in KKAy mouse at 200 mg/kg, po after 1 week
[38] = system: Mus musculus; test: Decrease in blood free fatty acid levels in KKAy mouse at 200 mg/kg, po after 1 week
[39] = system: 3T3-L1; test: Decrease in IL6 gene expression in mouse 3T3L1 cells at 30 uM after 2 days relative to beta-actin mRNA expression
[40] = system: 3T3-L1; test: Increase in adiponectin release in mouse 3T3L1 cells at 30 uM on day 6 by ELISA
[41] = system: Mus musculus; test: Decrease in blood free fatty acid levels in KKAy mouse at 100 mg/kg, po
[42] = system: Mus musculus; test: Effect on blood triglyceride levels in KKAy mouse at 200 mg/kg, po after 2 weeks
[43] = system: 3T3-L1; test: Increase in adiponectin gene expression in mouse 3T3L1 cells at 100 uM after 2 days relative to beta-actin mRNA expression
[44] = system: 3T3-L1; test: Increase in adiponectin gene expression in mouse 3T3L1 cells at 30 uM after 2 days relative to beta-actin mRNA expression
[45] = system: 3T3-L1; test: Increase in GLUT4 gene expression in mouse 3T3L1 cells at 3 uM after 2 days relative to beta-actin mRNA expression
[46] = system: 3T3-L1; test: Increase in PPARgamma2 gene expression in mouse 3T3L1 cells at 3 uM after 2 days relative to beta-actin mRNA expression
[47] = system: 3T3-L1; test: Increase in adiponectin gene expression in mouse 3T3L1 cells at 3 uM after 2 days relative to beta-actin mRNA expression
[48] = system: 3T3-L1; test: Decrease in IL6 gene expression in mouse 3T3L1 cells at 3 uM after 2 days relative to beta-actin mRNA expression

## O=c1oc(-c2ccc(O)c(O)c2)cc2cc(O)cc(O)c12 [THUNBERGINOL B]
[1]
  Activity: 54.1%
[2]
  Activity: 7.2%
[3]
  Activity: -7.8%
[4]
  Activity: -3.8%
[5]
  Activity: -8%

## O=C1OC(c2ccc(O)cc2)Cc2cccc(O)c21 (configuration not stated) [HYDRANGENOL]
[6]
  Ratio: 1.92
[7]
  Activity: 302%
[1]
  Activity: 41.3%
[8]
  Activity: 245%
[9]
  Activity: 422.7 mg/dL
[10]
  Activity: 389.1 mg/dL
[11]
  Ratio: 1.38
[12]
  Activity: 68.2 ng/mL
[13]
  Ratio: 0.51
[14]
  Activity: 33 ng/mL
[15]
  Activity: 1.07 mEq/L
[2]
  Activity: 29.9%
[16]
  Activity: 0.89 mEq/L
[17]
  Activity: 99.8 ng/mL
[3]
  Activity: 17.7%
[18]
  Activity: 117%
[19]
  Activity: 332.1 mg/dL
[20]
  Activity: 483.9 mg/dL
[21]
  Activity: 22.8 ng/mL
[22]
  Activity: 221%
[23]
  Activity: 411.2 mg/dL
[24]
  Activity: 336 mg/dL
[25]
  Activity: 336.3 mg/dL
[26]
  Ratio: 1.12
[27]
  Activity: 22.3 ng/mL
[28]
  Activity: 27.4 ng/mL
[29]
  Activity: 1.01 mEq/L
[30]
  Activity: 362.8 mg/dL
[31]
  Activity: 429.3 mg/dL
[32]
  Activity: 0.91 mEq/L
[33]
  Activity: 397.5 mg/dL
[34]
  Ratio: 2.65
[35]
  Activity: 160%
[36]
  Activity: 84.2 ng/mL
[37]
  Activity: 413.8 mg/dL
[38]
  Activity: 0.81 mEq/L
[39]
  Ratio: 0.78
[4]
  Activity: 14.4%
[40]
  Activity: 94 ng/mL
[41]
  Activity: 0.96 mEq/L
[42]
  Activity: 428.8 mg/dL
[5]
  Activity: 19.2%
[43]
  Ratio: 2.46
[44]
  Ratio: 1.98

## O=C1OC(c2ccc(O)cc2)Cc2cccc(O[C@@H]3O[C@H](CO)[C@@H](O)[C@H](O)[C@H]3O)c21 (some centres not stated)
[1]
  Activity: 9.2%
[2]
  Activity: 10.5%
[3]
  Activity: 1.2%
[4]
  Activity: 11.1%
[5]
  Activity: 11.2%

## O=C1OC(c2ccc(O)cc2)Cc2cc(O)cc(O)c21 (configuration not stated) [THUNBERGINOL C]
[1]
  Activity: 1.4%
[2]
  Activity: -17.6%
[3]
  Activity: -11.1%
[4]
  Activity: -9.3%
[5]
  Activity: -7.5%

## COc1ccc([C@H]2Cc3cccc(O)c3C(=O)O2)cc1O [PHYLLODULCIN]
[1]
  Activity: 20.3%
[2]
  Activity: 23.8%
[3]
  Activity: 9.8%
[4]
  Activity: -0.7%
[5]
  Activity: 12.8%

## O=C1O/C(=C\c2ccc(O)c(O)c2)c2cccc(O)c21 [THUNBERGINOL F]
[1]
  Activity: -54.8%
[2]
  Activity: 8.3%
[3]
  Activity: 6.2%
[4]
  Activity: 2.1%
[5]
  Activity: 6.2%

## O=c1oc(-c2ccc(O)c(O)c2)cc2cccc(O)c12 [THUNBERGINOL A]
[1]
  Activity: -27.6%
[2]
  Activity: 15.7%
[3]
  Activity: 19.6%
[4]
  Activity: 8%
[5]
  Activity: 17.5%

## O=C1OC(c2ccc(O)c(O)c2)Cc2cc(O)cc(O)c21 (configuration not stated) [THUNBERGINOL D]
[1]
  Activity: 12.5%
[2]
  Activity: 4%
[3]
  Activity: -0.8%
[4]
  Activity: -1.2%
[5]
  Activity: 2.8%

## COc1ccc([C@H]2Cc3cc(O)cc(O)c3C(=O)O2)cc1O [THUNBERGINOL E]
[1]
  Activity: -4%
[2]
  Activity: 3.4%
[3]
  Activity: -8%
[4]
  Activity: -6.3%
[5]
  Activity: -7.5%

## COc1ccc([C@H]2Cc3cccc(O[C@@H]4O[C@H](CO)[C@@H](O)[C@H](O)[C@H]4O)c3C(=O)O2)cc1O
[1]
  Activity: 6.6%
[2]
  Activity: -3%
[3]
  Activity: -1.5%
[4]
  Activity: 3.6%
[5]
  Activity: 8.7%

## Cc1c(C)c2c(c(C)c1O)CCC(C)(COc1ccc(CC3SC(=O)NC3=O)cc1)O2 (configuration not stated) [TROGLITAZONE]
[10]
  Activity: 293.3 mg/dL
[15]
  Activity: 0.8 mEq/L
[3]
  Activity: 39.6%
[19]
  Activity: 329.4 mg/dL
[20]
  Activity: 464.6 mg/dL
[25]
  Activity: 307.5 mg/dL
[28]
  Activity: 43 ng/mL
[45]
  Ratio: 2.92
[31]
  Activity: 303.4 mg/dL
[32]
  Activity: 0.62 mEq/L
[35]
  Activity: 388%
[46]
  Ratio: 1.09
[47]
  Ratio: 3.01
[48]
  Ratio: 0.89
[4]
  Activity: 33.8%
[40]
  Activity: 101.2 ng/mL
[41]
  Activity: 0.95 mEq/L
[5]
  Activity: 40.5%

## O=C(O)c1c(O)cccc1/C=C/c1ccc(O)cc1 [HYDRANGEAIC ACID]
[1]
  Activity: 41.2%
[2]
  Activity: 27.3%
[3]
  Activity: 11.1%
[4]
  Activity: 2.2%
[5]
  Activity: 11.7%
